Measurements as given in patent publication US7112600B1, “Fused-ring compounds and use thereof as drugs” (Japan Tobacco Inc., priority 1999, dated 2006).
Counter-ions that a name gives are not always drawn.

Legend:
HCV type 1b = experiment: inhibitory activity on HCV type 1b; settings: statement in words, no method described
HCV type 1a = experiment: inhibitory activity on HCV type 1a; settings: statement in words, no method described
[1] = blood concentration when administered to an animal; type: in vivo; settings: when administered as a pharmaceutical agent to an animal; statement in words
HCV polymerase = molecular target: T1, HCV polymerase (Hepatitis C virus genotype 1b, UniProt P26663); experiment: biochemical; settings: read-out: HCV polymerase inhibitory activity IC50
T1 construct: a region encoding NS5B (591 amino acids; J Virol 1991 Mar, 65(3), 1105-13) was amplified by PCR; 6 His (N); made in house; host or cells: Escherichia coli
T1 sequence (P26663 2420-3010): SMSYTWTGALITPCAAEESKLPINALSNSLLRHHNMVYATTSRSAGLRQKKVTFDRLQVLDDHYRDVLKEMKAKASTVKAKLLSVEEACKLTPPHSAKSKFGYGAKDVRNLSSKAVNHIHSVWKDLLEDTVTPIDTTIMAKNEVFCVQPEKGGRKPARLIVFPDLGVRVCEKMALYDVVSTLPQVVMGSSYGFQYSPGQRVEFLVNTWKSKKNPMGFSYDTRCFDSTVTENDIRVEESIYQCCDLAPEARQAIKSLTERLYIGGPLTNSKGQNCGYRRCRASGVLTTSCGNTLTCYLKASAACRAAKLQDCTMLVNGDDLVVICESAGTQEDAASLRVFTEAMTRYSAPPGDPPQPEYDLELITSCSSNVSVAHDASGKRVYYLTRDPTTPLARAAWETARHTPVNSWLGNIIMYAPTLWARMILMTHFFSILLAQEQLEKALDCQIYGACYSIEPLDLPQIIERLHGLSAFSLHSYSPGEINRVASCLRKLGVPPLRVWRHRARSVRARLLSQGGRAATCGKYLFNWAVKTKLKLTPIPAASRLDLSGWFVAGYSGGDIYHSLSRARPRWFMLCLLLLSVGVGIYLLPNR
Excerpt: The evaluation of the HCV polymerase inhibitory activity of the compound of the present invention is explained in the following. This polymerase is an enzyme coded for by the non-structural protein region called NS5B on the RNA gene of HCV (EMBO J., 15:12-22, 1996).
i) Preparation of enzyme (HCV polymerase)
Using, as a template, a cDNA clone corresponding to the full length RNA gene of HCV BK strain obtained from the blood of a patient with hepatitis C, a region encoding NS5B (591 amino acids; J Virol 1991 Mar, 65(3), 1105-13) was amplified by PCR. The objective gene was prepared by adding a 6 His tag {base pair encoding 6 continuous histidine (His)} to the 5′ end thereof and transformed to Escherichia coli. The Escherichia coli capable of producing the objective protein was cultured. The obtained cells were suspended in a buffer solution containing a surfactant and crushed in a microfluidizer.
ii) Synthesis of substrate RNA
Using a synthetic primer designed based on the sequence of HCV genomic 3′ untranslated region, a DNA fragment (148 bp) containing polyU and 3′X sequence was entirely synthesized and cloned into plasmid pBluescript SK II(+) (Stratagene). The cDNA encoding full length NSSB, which was prepared in i) above, was digested with restriction enzyme KpnI to give a cDNA fragment containing the nucleotide sequence of from the restriction enzyme cleavage site to the termination codon. This cDNA fragment was inserted into the upstream of 3′ untranslated region of the DNA in pBluescript SK II(+) and ligated. The about 450 bp inserted DNA sequence was used as a template in the preparation of substrate RNA.
RNA was synthesized (37° C., 3 hr) by run-off method using this purified DNA as a template, a promoter of pBluescript SK II(+), MEGAscript RNA synthesis kit (Ambion) and T7 RNA polymerase. DNaseI was added and the mixture was incubated for 1 hr. The template DNA was removed by decomposition to give a crude RNA product.
This RNA was applied to formaldehyde denaturation agarose gel electrophoresis to confirm the quality thereof and preserved at −80° C.
iii) Assay of enzyme (HCV polymerase) inhibitory activity
A test substance (compound of the present invention) and a reaction mixture (30 μl) having the following composition were reacted at 25° C. for 90 min.
10% Trichloroacetic acid at 4° C. and 1% sodium pyrophosphate solution (150 μl) were added to this reaction mixture to stop the reaction. The reaction mixture was left standing in ice for 15 min to insolubilize RNA. This RNA was trapped on a glass filter (Whatman GF/C and the like) upon filtration by suction. This filter was washed with a solution containing 1% trichloroacetic acid and 0.1% sodium pyrophosphate, washed with 90% ethanol and is dried. A liquid scintillation cocktail (Packard) was added and the radioactivity of RNA synthesized by the enzyme reaction was measured on a liquid scintillation counter.
The HCV polymerase inhibitory activity (IC50) of the compound of the present invention was calculated from the values of radioactivity of the enzyme reaction with and without the test substance.
Reaction mixture : HCV polymerase (5 μg/ml) obtained in i), substrate RNA (10 μg/ml) obtained in ii), ATP (50 μM), GTP (50 μM), CTP (50 μM), UTP (2 μM), [5,6-^3H]UTP (46 Ci/mmol (Amersham), […]) 20 mM Tris-HCl (pH 7.5), EDTA (1 mM), MgCl2 (5 mM), NaCl (50 mM), DTT (1 mM), BSA (0.01%)

Q: Which “inhibitory activity on HCV type 1b” value (HCV type 1b) does the source give for `Cl.O=C(O)c1ccc2c(c1)nc(-c1ccc(OCc3cc(N4CCCC4=O)ccc3-c3ccc(Cl)cc3)cc1F)n2C1CCCCC1` [2-{4-[2-(4-chlorophenyl)-5-(2-oxopyrrolidin-1-yl)benzyloxy]-2-fluorophenyl}-1-cyclohexylbenzimidazole-5-carboxylic acid hydrochloride] here?
A: Its value is “high inhibitory activity”.

Q: What about the “inhibitory activity on HCV type 1a” value (HCV type 1a) of the same compound?
A: Its value is “high inhibitory activity”.

Q: And the blood concentration [1]?
A: Its blood concentration is “high blood concentration”.

Q: For `COc1cc(CCOc2ccc(-c3nc4cc(C(=O)O)ccc4n3C3CCCCC3)cc2)cc(OC)c1OC` [Example 101, 1-cyclohexyl-2-{4-[2-(3,4,5-trimethoxyphenyl)ethoxy]phenyl}-benzimidazole-5-carboxylic acid], which IC50 (HCV polymerase) is on record?
A: Its IC50 is 0.14 µM.

Q: For `O=C(O)c1ccc2c(c1)nc(-c1ccc(OCCN3c4ccccc4CCc4ccccc43)cc1)n2C1CCCCC1` [Example 116, 1-cyclohexyl-2-{4-[2-(10,11-dihydro-5H-dibenzo[b,f]azepin-5-yl)ethoxy]phenyl}benzimidazole-5-carboxylic acid], which IC50 (HCV polymerase) is on record?
A: Its IC50 is 0.37 µM.

Q: With `O=C(O)c1ccc2c(c1)nc(-c1ccc(Oc3cccc(Oc4ccccc4)c3)cc1)n2C1CCCCC1` [Example 129, 1-cyclohexyl-2-[4-(3-phenoxyphenoxy)phenyl]benzimidazole-5-carboxylic acid] as the compound, how does the IC50 (HCV polymerase) read?
A: Its IC50 is 0.12 µM.

Q: With `O=C(O)c1ccc2c(c1)nc(-c1ccc(Oc3cc(-c4cccc(Cl)c4)ncn3)cc1)n2C1CCCCC1` [Example 240, 2-{4-[4-(3-chlorophenyl)-6-pyrimidinyloxy]phenyl}-1-cyclohexylbenzimidazole-5-carboxylic acid] as the compound, how does the IC50 (HCV polymerase) read?
A: Its IC50 is 0.055 µM.

Q: Which IC50 (HCV polymerase) does the source give for `COC(=O)c1ccc2c(c1)nc(-c1ccc(OCc3cc(C(=O)O)ccc3-c3ccc(Cl)cc3)cc1F)n2C1CCCCC1` [Example 281, methyl 2-{4-[5-carboxy-2-(4-chlorophenyl)benzyloxy]-2-fluorophenyl}-1-cyclohexylbenzimidazole-5-carboxylate hydrochloride] here?
A: Its IC50 is 0.052 µM.

Q: For `O=C(O)c1ccc2c(c1)nc(-c1ccc(OC(c3cccnc3)c3cccnc3)cc1F)n2C1CCCCC1` [Example 300, 2-{4-[bis(3-pyridyl)methoxy]-2-fluorophenyl}-1-cyclohexylbenzimidazole-5-carboxylic acid], which IC50 (HCV polymerase) is on record?
A: Its IC50 is 0.045 µM.

Q: Which IC50 (HCV polymerase) does the source give for `CN(C)C(=O)c1ccc(-c2ccc(Cl)cc2)c(COc2ccc(-c3nc4cc(-c5nnn[nH]5)ccc4n3C3CCCCC3)c(F)c2)c1` [Example 434, 2-{4-[2-(4-chlorophenyl)-5-(dimethylcarbamoyl)benzyloxy]-2-fluorophenyl}-1-cyclohexyl-5-tetrazol-5-ylbenzimidazole] here?
A: The IC50 was 0.011 µM.
